Like-named read-outs stand apart in the source and are kept apart here.
Molecular target: T1, pyocin L1 (Pseudomonas aeruginosa, UniProt T2LG16)
T1 construct: full length, 256 residues, 28413 Da; expressed in E. coli BL21(DE3)pLysS (pETPyoL1); monomer
T1 sequence (T2LG16 1-256): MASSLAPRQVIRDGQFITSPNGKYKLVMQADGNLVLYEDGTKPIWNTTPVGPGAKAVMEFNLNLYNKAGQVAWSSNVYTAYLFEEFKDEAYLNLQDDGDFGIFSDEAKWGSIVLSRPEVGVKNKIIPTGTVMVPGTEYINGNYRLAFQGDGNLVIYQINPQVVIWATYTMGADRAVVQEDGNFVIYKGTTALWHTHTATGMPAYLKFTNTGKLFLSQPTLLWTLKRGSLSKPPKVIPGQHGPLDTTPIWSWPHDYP
Format: binding

Row | SMILES | Kd (read-out: apparent Kd) [mM] | Kd (read-out: Kd) [mM]
1 | C[C@H]1OC(O)[C@@H](O)[C@@H](O)[C@@H]1O (stereo partly drawn) [D-rhamnose] | 5 to 10 | 
2 | OC[C@H]1OC(O)[C@@H](O)[C@@H](O)[C@@H]1O (stereo partly drawn) [D-mannose] |  | > 50

Source: paper PMC3916391 (PLoS Pathogens, 2014)
